For one assay, the target named is T1, His6-TEV-PPARγ-(234-505) (Homo sapiens, UniProt P37231).
T1 construct: The His6-TEV-PPARγ-(234-505) protein for assay was expressed and purified; TEV cleavage site (N); made in house
T1 sequence (P37231 234-505): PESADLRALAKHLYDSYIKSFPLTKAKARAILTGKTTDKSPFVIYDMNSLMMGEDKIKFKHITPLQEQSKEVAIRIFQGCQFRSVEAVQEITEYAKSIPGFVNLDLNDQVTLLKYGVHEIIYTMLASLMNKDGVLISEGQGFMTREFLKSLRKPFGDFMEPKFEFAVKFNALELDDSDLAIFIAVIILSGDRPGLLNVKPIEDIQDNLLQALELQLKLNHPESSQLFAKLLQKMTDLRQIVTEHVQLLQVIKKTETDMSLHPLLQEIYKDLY
As to the kind of experiment: TR-FRET Assay to Measure Co-R Peptide Recruitment to PPARγ. The following applies: Co-R peptide (SMRT-ID2) recruitment; top final concentration 20 μM; read-out: TR-FRET i-Ag; AC50. Format: biochemical. The protocol:
TR-FRET Assay to Measure Co—R Peptide Recruitment to PPARγ
The 2× detection solution contained anti-6×His-Terbium antibody (CisBio) and FITC labeled Co—R peptide (SMRT-ID2 from New England Peptide) at final concentrations of 5 and 200 nM respectively.
In these assay plates, the positive control in column 24 contained 500 nM (final) T0070907 and the negative control in column 23 contained an identical volume of DMSO. Then, 5 μL of 2+ protein working stock or controls were added to the plate and incubated for 20 minutes at room temperature. Reagents additions were performed with either a Combi (Thermo) or Mantis (Formulatory) pipetting device. The incubation was followed by addition of 5 μL of the 2× detection solution. Plates were covered, centrifuged, and incubated for an additional hour. The TR-FRET data was recorded with an Envision plate reader (Perkin Elmer), using settings recommended by Thermo Fisher. The TR-FRET signal of the positive and negative control's recruitment of FITC-Co—R peptide was used to normalize the TR-FRET signal to percent response and to determine the assay Z prime. Experiments were performed in triplicate and analyzed in GraphPad Prism 7.
A general note: TR-FRET usually uses a lanthanide donor and a delayed reading to cut background.
Regarding `COc1cc(-c2cc(C(=O)N3C(C)CC(C(=O)NCc4cccc(Cl)c4)CC3C)n[nH]2)c(Cl)cn1` (mixture of isomers) [Example 274, 1-(5-(5-chloro-2-methoxypyridin-4-yl)-1H-pyrazole-3-carbonyl)-N-(3-chlorobenzyl)-2,6-dimethylpiperidine-4-carboxamide], the AC50 worked out at 20 nM. For `CC1CCC(NC(=O)C2CCN(C(=O)c3cc(-c4ccncc4Cl)[nH]n3)CC2)CC1` (mixture of isomers) [Example 109, 1-(5-(3-chloropyridin-4-yl)-1H-pyrazole-3-carbonyl)-N-(4-methylcyclohexyl)piperidine-4-carboxamide], the AC50 was 373 nM.

The assay is the same for the next values; noted with them: Co-R peptide recruitment to PPARγ; read-out: TR-FRET AC50.
In the case of `COc1cc(-c2cc(C(=O)N3CCC(C(=O)NCc4ccc5[nH]ncc5c4)CC3)n[nH]2)c(Cl)cn1` [1-[5-(5-chloro-2-methoxypyridin-4-yl)-1H-pyrazole-3-carbonyl]-N-[(1H-indazol-5-yl)methyl]piperidine-4-carboxamide], the AC50 is > 1000 nM. In the case of `COc1cc(-c2cc(C(=O)N3CCC(C(=O)NCc4ccn5ccnc5c4)CC3)n[nH]2)c(Cl)cn1` [1-[5-(5-chloro-2-methoxypyridin-4-yl)-1H-pyrazole-3-carbonyl]-N-({imidazo[1,2-a]pyridin-7-yl}methyl)piperidine-4-carboxamide], the AC50 was > 1000 nM. Turning to `COc1cc(-c2cc(C(=O)N3C[C@H]4C[C@@H]3CC4C(=O)N[C@H]3CC[C@@](O)(C(F)(F)F)CC3)n[nH]2)c(F)cn1` (single isomer, unassigned), the AC50 is > 1000 nM.

For `CCC1(O)CCC(NC(=O)C2CCN(C(=O)c3cc(-c4cc(OC)ncc4Cl)[nH]n3)CC2)CC1` (stereo not drawn) [1-[5-(5-chloro-2-methoxypyridin-4-yl)-1H-pyrazole-3-carbonyl]-N-(4-ethyl-4-hydroxycyclohexyl)piperidine-4-carboxamide], the AC50 is > 1000 nM. The same measure, in the same setting: under `COc1cc(-c2cc(C(=O)N3CCC(C(=O)NCc4ccon4)CC3)n[nH]2)c(Cl)cn1` [1-[5-(5-chloro-2-methoxypyridin-4-yl)-1H-pyrazole-3-carbonyl]-N-[(1,2-oxazol-3-yl)methyl]piperidine-4-carboxamide] stands > 1000 nM; under `COc1ccc(NC(=O)C2CCN(C(=O)c3cc(-c4ccncc4)[nH]n3)CC2)cc1` [N-(4-methoxyphenyl)-1-[5-(pyridin-4-yl)-1H-pyrazole-3-carbonyl]piperidine-4-carboxamide], > 1000 nM. On the same count and under the same terms, for `CC1CCC(NC(=O)C2CCN(C(=O)c3cc(-c4ccnc(C#N)c4)[nH]n3)CC2)CC1` (stereo not drawn) [1-[5-(2-cyanopyridin-4-yl)-1H-pyrazole-3-carbonyl]-N-(4-methylcyclohexyl)piperidine-4-carboxamide] the value was > 1000 nM; for `COc1cc(-c2cc(C(=O)N3CCC(C(=O)NCCn4ccccc4=O)CC3)n[nH]2)c(Cl)cn1` [1-[5-(5-chloro-2-methoxypyridin-4-yl)-1H-pyrazole-3-carbonyl]-N-[2-(2-oxo-1,2-dihydropyridin-1-yl)ethyl]piperidine-4-carboxamide], > 1000 nM; for `COc1cc(-c2cc(C(=O)N3CCC(C(=O)NCC4CC(F)(F)C(=O)N4)CC3)n[nH]2)c(Cl)cn1` (stereo not drawn) [1-[5-(5-chloro-2-methoxypyridin-4-yl)-1H-pyrazole-3-carbonyl]-N-[(4,4-difluoro-5-oxopyrrolidin-2-yl)methyl]piperidine-4-carboxamide], > 1000 nM. Still for that read-out and setting: under `COc1cc(-c2cc(C(=O)N3CCC(C(=O)NCc4cn5cccnc5n4)CC3)n[nH]2)c(Cl)cn1` [1-[5-(5-chloro-2-methoxypyridin-4-yl)-1H-pyrazole-3-carbonyl]-N-({imidazo[1,2-a]pyrimidin-2-yl}methyl)piperidine-4-carboxamide] stands > 1000 nM; under `CN1CCC(N(C)C(=O)C2CCN(C(=O)c3cc(-c4ccncc4)[nH]n3)CC2)CC1` [N-methyl-N-(1-methylpiperidin-4-yl)-1-[5-(pyridin-4-yl)-1H-pyrazole-3-carbonyl]piperidine-4-carboxamide], > 1000 nM; under `CC1CCC(NC(=O)C2CCN(C(=O)c3cc(-c4ccncc4C#N)[nH]n3)CC2)CC1` (stereo not drawn) [1-[5-(3-cyanopyridin-4-yl)-1H-pyrazole-3-carbonyl]-N-(4-methylcyclohexyl)piperidine-4-carboxamide], > 1000 nM. For the molecule `O=C(NCc1cc(Cl)ccc1Cl)C1CCN(C(=O)c2cc(-c3cccnc3)[nH]n2)CC1` [N-[(2,5-dichlorophenyl)methyl]-1-[5-(pyridin-3-yl)-1H-pyrazole-3-carbonyl]piperidine-4-carboxamide], the AC50 was > 1000 nM. For `COc1cc(-c2cc(C(=O)N3CCC(OC)(C(=O)NCc4cccc(Cl)c4)CC3)n[nH]2)c(Cl)cn1` [1-[5-(5-chloro-2-methoxypyridin-4-yl)-1H-pyrazole-3-carbonyl]-N-[(3-chlorophenyl)methyl]-4-methoxypiperidine-4-carboxamide], the AC50 was > 1000 nM.

With `COc1cc(-c2cc(C(=O)N3CCC(C(=O)NC4CCC5(CCCN5)CC4)CC3)n[nH]2)c(F)cn1` (stereo not drawn), the AC50 was > 1000 nM. Still for that read-out and setting: under `COc1cc(-c2cc(C(=O)N3CC[C@@H](C(=O)NC4CC[C@H](C(F)(F)F)N(C)C4)CC34CC4)n[nH]2)c(F)cn1` (mixture of isomers) [(7R)-4-[5-(5-fluoro-2-methoxypyridin-4-yl)-1H-pyrazole-3-carbonyl]-N-[(3RS,6R)-1-methyl-6-(trifluoromethyl)piperidin-3-yl]-4-azaspiro[2.5]octane-7-carboxamide] stands > 1000 nM; under `COc1cc(-c2cc(C(=O)N3CCC(C(=O)NC4COC(C)(C)OC4)CC3)n[nH]2)c(Cl)cn1` [1-[5-(5-chloro-2-methoxypyridin-4-yl)-1H-pyrazole-3-carbonyl]-N-(2,2-dimethyl-1,3-dioxan-5-yl)piperidine-4-carboxamide], > 1000 nM; under `COc1cc(-c2cc(C(=O)N3CCC(C(=O)NCc4cccc(Cl)c4)C4C3C4(F)F)n[nH]2)c(Cl)cn1` (stereo not drawn) [2-[5-(5-chloro-2-methoxypyridin-4-yl)-1H-pyrazole-3-carbonyl]-N-[(3-chlorophenyl)methyl]-7,7-difluoro-2-azabicyclo[4.1.0]heptane-5-carboxamide], > 1000 nM. The same measure, in the same setting: under `COc1cc(-c2cc(C(=O)N3CCC(C(=O)NCc4noc(C)n4)CC3)n[nH]2)c(Cl)cn1` [1-[5-(5-chloro-2-methoxypyridin-4-yl)-1H-pyrazole-3-carbonyl]-N-[(5-methyl-1,2,4-oxadiazol-3-yl)methyl]piperidine-4-carboxamide] stands > 1000 nM; under `Cc1cc(CNC(=O)C2CCN(C(=O)c3cc(-c4ccncc4)[nH]n3)CC2)cnc1C` [N-[(5,6-dimethylpyridin-3-yl)methyl]-1-[5-(pyridin-4-yl)-1H-pyrazole-3-carbonyl]piperidine-4-carboxamide], > 1000 nM. In the case of `O=C(NC1CC1)C1CCN(C(=O)c2cc(-c3ccncc3)[nH]n2)CC1` [N-cyclopropyl-1-[5-(pyridin-4-yl)-1H-pyrazole-3-carbonyl]piperidine-4-carboxamide], the AC50 is > 1000 nM.

Turning to `CCCN(C)C(=O)C1CCN(C(=O)c2cc(-c3ccncc3)[nH]n2)CC1` [N-methyl-N-propyl-1-[5-(pyridin-4-yl)-1H-pyrazole-3-carbonyl]piperidine-4-carboxamide], the AC50 was > 1000 nM.

(Values after patent US12606541B2, “PPARg modulators and methods of use” (Eisai R&D Management Co., Ltd., priority 2020, dated 2026).)
